Molecular target: T1, human V1a receptor (Homo sapiens, UniProt P37288)
T1 construct: expressed in transfected cells; host or cells: HEK293 cells, transiently transfected; cell membranes
Assay: human V1a receptor binding (3H-Vasopressin SPA, HEK293 membranes)
Details: displacement of 4 nM 3H-Vasopressin, membranes of HEK293 cells transiently transfected with human V1a receptor; Ki from IC50 by Cheng-Prussoff
Summary of the method: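 Ki derived by Cheng-Prusoff from IC50 curves normalised to specific binding. Serially diluted compounds (in 2% DMSO) competed with 3H-vasopressin (4 nM working solution) for 1 h at room temperature on SPA beads bearing membranes of transiently transfected HEK293 cells; unlabelled vasopressin defined non-specific counts.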

T1 sequence (P37288 whole entry): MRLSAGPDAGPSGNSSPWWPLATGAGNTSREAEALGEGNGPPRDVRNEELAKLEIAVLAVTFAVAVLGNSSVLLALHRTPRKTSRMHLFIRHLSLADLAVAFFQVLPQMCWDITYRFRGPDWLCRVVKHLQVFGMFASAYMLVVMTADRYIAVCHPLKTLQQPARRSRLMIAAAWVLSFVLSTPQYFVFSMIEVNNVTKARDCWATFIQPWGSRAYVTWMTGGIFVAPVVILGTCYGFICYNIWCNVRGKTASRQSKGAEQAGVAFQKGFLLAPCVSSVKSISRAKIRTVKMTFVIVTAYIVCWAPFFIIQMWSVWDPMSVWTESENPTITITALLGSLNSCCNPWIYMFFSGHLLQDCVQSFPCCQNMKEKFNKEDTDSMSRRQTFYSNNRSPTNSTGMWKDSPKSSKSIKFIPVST

| Structure (SMILES) | Ki [nM] |
| --- | --- |
| O=C1OC2(CCN(C(=O)c3cn(CCc4ccncc4)c4cc(Cl)ccc34)CC2)c2ccc(F)cc21 [Example 167, 1′-{[6-Chloro-1-(2-pyridin-4-ylethyl)-1H-indol-3-yl]carbonyl}-5-fluoro-3H-spiro[2-benzofuran-1,4′-piperidin]-3-one] | 3 |
| O=C1OC2(CCN(C(=O)c3cn(Cc4ccncc4)c4cc(Cl)ccc34)CC2)c2ccccc21 [Example 168, 1′-{[6-Chloro-1-(pyridin-4-ylmethyl)-1H-indol-3-yl]carbonyl}-3H-spiro[2-benzofuran-1,4′-piperidin]-3-one] | 2.4 |
| Cc1oc(-c2ccccc2)nc1C(=O)Cn1cc(C(=O)N2CCC3(CC2)OC(=O)c2cc(F)ccc23)c2ccc(Cl)cc21 [Example 170, 1′-({6-Chloro-1-[2-(5-methyl-2-phenyl-1,3-oxazol-4-yl)-2-oxoethyl]-1H-indol-3-yl}carbonyl)-5-fluoro-3H-spiro[2-benzofuran-1,4′-piperidin]-3-one] | 2.2 |
| O=C1OC2(CCN(C(=O)c3cn(Cc4ccccn4)c4cc(Cl)ccc34)CC2)c2ccc(F)cc21 [Example 171, 1′-{[6-Chloro-1-(pyridin-2-ylmethyl)-1H-indol-3-yl]carbonyl}-5-fluoro-3H-spiro[2-benzofuran-1,4′-piperidin]-3-one] | 2.7 |
| O=C1OC2(CCN(C(=O)c3c4n(c5cc(Cl)ccc35)CCNC4=O)CC2)c2ccc(F)cc21 [Example 176, 1′-[(7-Chloro-1-oxo-1,2,3,4-tetrahydropyrazino[1,2-a]indol-10-yl)carbonyl]-5-fluoro-3H-spiro[2-benzofuran-1,4′-piperidin]-3-one] | 14.8 |

Next, values leading:

| Ki [nM] | Structure (SMILES) |
| --- | --- |
| 1.5 | O=C(Cn1cc(C(=O)N2CCC3(CC2)OC(=O)c2cc(F)ccc23)c2ccc(Cl)cc21)c1ccccn1 [Example 169, 1′-{[6-Chloro-1-(2-oxo-2-pyridin-2-ylethyl)-1H-indol-3-yl]carbonyl}-5-fluoro-3H-spiro[2-benzofuran-1,4′-piperidin]-3-one] |
| 3 | O=C1OC2(CCN(C(=O)c3cn(Cc4cccnc4)c4cc(Cl)ccc34)CC2)c2ccccc21 [Example 172, 1′-{[6-Chloro-1-(pyridin-3-ylmethyl)-1H-indol-3-yl]carbonyl}-3H-spiro[2-benzofuran-1,4′-piperidin]-3-one] |
| 2.3 | O=C1OC2(CCN(C(=O)c3cn(Cc4cnccn4)c4cc(Cl)ccc34)CC2)c2ccc(F)cc21 [Example 173, 1′-{[6-Chloro-1-(pyrazin-2-ylmethyl)-1H-indol-3-yl]carbonyl}-5-fluoro-3H-spiro[2-benzofuran-1,4′-piperidin]-3-one] |
| 2.6 | O=C1OC2(CCN(C(=O)c3cn(Cc4cncnc4)c4cc(Cl)ccc34)CC2)c2ccc(F)cc21 [Example 174, 1′-{[6-Chloro-1-(pyrimidin-5-ylmethyl)-1H-indol-3-yl]carbonyl}-5-fluoro-3H-spiro[2-benzofuran-1,4′-piperidin]-3-one] |
| 2.5 | N#CCCn1cc(C(=O)N2CCC3(CC2)OC(=O)c2cc(F)ccc23)c2ccc(Cl)cc21 [Example 175, 3-{6-Chloro-3-[(5-fluoro-3-oxo-1′H,3H-spiro[2-benzofuran-1,4′-piperidin]-1′-yl)carbonyl]-1H-indol-1-yl}propanenitrile] |
| 6.9 | O=C1OC2(CCN(C(=O)c3cn(CC4CN(Cc5ccccc5)CCO4)c4cc(Cl)ccc34)CC2)c2ccc(F)cc21 (stereo not drawn) [Example 177, 1′-({1-[(4-Benzylmorpholin-2-yl)methyl]-6-chloro-1H-indol-3-yl}carbonyl)-5-fluoro-3H-spiro[2-benzofuran-1,4′-piperidin]-3-one] |
| 3.1 | Cc1cc(Cn2cc(C(=O)N3CCC4(CC3)OC(=O)c3cc(F)ccc34)c3ccc(Cl)cc32)no1 [Example 179, 1′-({6-Chloro-1-[(5-methylisoxazol-3-yl)methyl]-1H-indol-3-yl}carbonyl)-5-fluoro-3H-spiro[2-benzofuran-1,4′-piperidin]-3-one] |
